Laboratory results as given in patent publication EP1282414B1, “FELBAMATE DERIVED COMPOUNDS FOR TREATING NEUROPATHIC PAIN” (University of Virginia Patent Foundation, priority 2000, dated 2001).

What was measured:
[1] = test system: mice; test: Minimal neurotoxicity (TOX), rotorod test, mice i.p.; type: in vivo; settings: mice i.p.
Text: The fluoro derivatives synthesized were submitted to the National Institute of Neurological Disorders and Stroke (NINDS) for evaluation in a standard panel of assays. Two convulsant tests (MES and scMET), and a toxicity screen (rotorod in mice, positional sense and gait in rats) were employed for evaluating the compounds activity as neuroprotecting agents. These testing procedures are described in detail in Molecular and Cellular Targets for Anti-epileptic Drugs, eds. […] The felbamate derivatives were evaluated for anticonvulsant activity following intraperitoneal (i.p.) administration in mice and oral administration in rats. […]

[2] = test system: MES-induced seizure spread; test: Maximal Electroshock Seizure (MES) test, rats p.o.; type: in vivo, rat; settings: for MES, number of animals protected / total number of animals tested: rat p.o., 30 mg/kg; for anti-seizure activity (in words): rats
Text: (§1) The fluoro derivatives synthesized were submitted to the National Institute of Neurological Disorders and Stroke (NINDS) for evaluation in a standard panel of assays. Two convulsant tests (MES and scMET), and a toxicity screen (rotorod in mice, positional sense and gait in rats) were employed for evaluating the compounds activity as neuroprotecting agents. These testing procedures are described in detail in Molecular and Cellular Targets for Anti-epileptic Drugs, eds. G. Avanzini, G. Regesta, P. Tanganelli, M. Avoli, 1997, John Libbey & Company Ltd, pp 191-198. The felbamate derivatives were evaluated for anticonvulsant activity following intraperitoneal (i.p.) administration in mice and oral administration in rats.
(§2) The MES test is a model for generalized tonic-clonic seizures and is used to identify compounds which prevent seizure spread. The behavioral and electrographic seizures generated in this model are consistent with the human disorder. In the MES test, an electrical stimulus of 0.2 s in duration (50 mA in mice and 150 mA in rat at 60Hz) was delivered via corneal electrodes primed with an electrolyte solution containing an anesthetic agent. Mice were tested at 30 minutes and 4 hours following doses of 30, 100 and 300 mg/kg of test compound. Rats were tested at time intervals between 0.25 and 4 hours following a standard oral dose of 30 mg/kg. Abolition of the hindlimb tonic extensor component indicates the test compound's ability to inhibit MES-induced seizure spread.
(§3) For the MES and scMET tests the data is presented in the form of the number of animals protected by the administered compound / total number of animals tested. […] Qualitative data was obtained for fluoro felbamate 12 (Tables 1 and 2A), fluoro monocarbamate felbamate 13 (Tables 1 and 2B), and fluorodioxo 16 (Tables 1 and 2C) and for cyclic felbamate 21 (Tables 5 and 6B) and cyclic monocarbamate 22 (Tables 5 and 6A). More extensive quantitative data was also obtained for fluoro felbamate 12 in mice (Table 3) and rats (Table 4).

[3] = test system: MES-induced seizure spread; test: Maximal Electroshock Seizure (MES) test, mice i.p.; type: in vivo; settings: for MES, number of animals protected / total number of animals tested: mice i.p.
Text: as §1
as §2, with “Mice were tested at 30 minutes and 4 hours following doses of 30, 100 and 300 mg/kg of test compound.” left out
as §3

[4] = test system: pentylenetetrazol; test: Subcutaneous Metrazol seizure test (scMET), mice i.p.; type: in vivo, Carworth Farms No. 1 mice; settings: mice i.p.
Text: as §1
This is a model that primarily identifies compounds that raise seizure threshold. With some minor exceptions, the pharmacological profile of the scMET seizure model is consistent with the human condition. The scMET test utilizes a dose of pentylenetetrazol (85 mg/kg in Carworth Farms No. 1 mice and 70 mg/kg in Sprague-Dawley rats) that induces clonic seizures lasting for a period of at least five seconds in 97 % (CD97) of animals tested. At the anticipated time of testing the convulsant is administered subcutaneously. The test compound is administered intraperitoneally in mice and orally in rats. Animals are observed over a 30 minute period. Absence of clonic spasms in the observed time period indicates a compound's ability to abolish the effect of pentylenetetrazol on seizure threshold.
as §3

[5] = test system: rats; test: Minimal neurotoxicity (TOX), positional sense and gait and stance tests, rats p.o.; type: in vivo; settings: rat p.o., 30 mg/kg
Text: The fluoro derivatives synthesized were submitted to the National Institute of Neurological Disorders and Stroke (NINDS) for evaluation in a standard panel of assays. Two convulsant tests (MES and scMET), and a toxicity screen (rotorod in mice, positional sense and gait in rats) were employed for evaluating the compounds activity as neuroprotecting agents. These testing procedures are described in detail in Molecular and Cellular Targets for Anti-epileptic Drugs, eds. […] The felbamate derivatives were evaluated for anticonvulsant activity following intraperitoneal (i.p.) administration in mice and oral administration in rats.
Rats are examined for behavioral toxicity by the positional sense test and a gait and stance test. […] In the gait and stance test, neurotoxicity is indicated by a circular or zigzag gait, ataxia, abnormal spread of the legs, abnormal posture, tremor hyperactivity, lack of exploratory behavior, somnolence, stupor or catalepsy. […]

Row | SMILES | TOX, number of animals exhibiting toxic effects / total number of animals tested ([1]; 30 mg/kg, 0.5h) | TOX, number of animals exhibiting toxic effects / total number of animals tested ([1]; 100 mg/kg, 0.5h) | TOX, number of animals exhibiting toxic effects / total number of animals tested ([1]; 300 mg/kg, 0.5h) | MES, number of animals protected / total number of animals tested ([2]; 0.25h) | MES, number of animals protected / total number of animals tested ([2]; 0.5h) | MES, number of animals protected / total number of animals tested ([2]; 1.0h) | MES, number of animals protected / total number of animals tested ([2]; 2.0h) | MES, number of animals protected / total number of animals tested ([2]; 4.0h) | anti-seizure activity (in words) [2] | MES, number of animals protected / total number of animals tested ([3]; 30 mg/kg, 0.5h) | MES, number of animals protected / total number of animals tested ([3]; 100 mg/kg, 0.5h) | MES, number of animals protected / total number of animals tested ([3]; 300 mg/kg, 0.5h) | ScMET, number of animals protected / total number of animals tested ([4]; 30 mg/kg, 0.5h) | ScMET, number of animals protected / total number of animals tested ([4]; 100 mg/kg, 0.5h) | ScMET, number of animals protected / total number of animals tested ([4]; 300 mg/kg, 0.5h) | TOX, number of animals exhibiting toxic effects / total number of animals tested ([5]; 0.25h) | TOX, number of animals exhibiting toxic effects / total number of animals tested ([5]; 0.5h) | TOX, number of animals exhibiting toxic effects / total number of animals tested ([5]; 1.0h) | TOX, number of animals exhibiting toxic effects / total number of animals tested ([5]; 2.0h) | TOX, number of animals exhibiting toxic effects / total number of animals tested ([5]; 4.0h) | other results
1 | O=C1NC(O)C(c2ccccc2)CO1 (stereo not shown) [Cyclic MCF] | 0/4 | 0/8 | 0/4 | 0/4 | 0/4 | 1/4 | 2/4 | 3/4 | potent activity | 0/1 | 0/3 | 1/1 | 0/1 | 2/5 | 2/5 | 0/4 | 0/4 | 0/4 | 0/4 | 0/4 | TOX, number of animals exhibiting toxic effects / total number of animals tested ([1]; 30 mg/kg, 2.0h): 0/2; TOX, number of animals exhibiting toxic effects / total number of animals tested ([1]; 100 mg/kg, 2.0h): 0/4; TOX, number of animals exhibiting toxic effects / total number of animals tested ([1]; 300 mg/kg, 2.0h): 0/2; MES, number of animals protected / total number of animals tested ([3]; 30 mg/kg, 2.0h): 0/1; MES, number of animals protected / total number of animals tested ([3]; 100 mg/kg, 2.0h): 2/3; MES, number of animals protected / total number of animals tested ([3]; 300 mg/kg, 2.0h): 1/1; ScMET, number of animals protected / total number of animals tested ([4]; 30 mg/kg, 2.0h): 0/1; ScMET, number of animals protected / total number of animals tested ([4]; 100 mg/kg, 2.0h): 0/1; ScMET, number of animals protected / total number of animals tested ([4]; 300 mg/kg, 2.0h): 0/1
2 | O=C1NC(=O)C(F)(c2ccccc2)CO1 (stereo not shown) [fluoro dioxo, 5-Fluoro-5-phenyl-1,3-oxazinane-2,4-dione] | 0/4 | 0/8 | 1/4 | 0/4 | 1/4 | 1/4 | 1/4 | 2/4 | strong anti-seizure activity | 0/1 | 0/3 | 0/1 | 0/1 | 0/1 | 0/1 | 0/4 | 0/4 | 0/4 | 0/4 | 0/4 | TOX, number of animals exhibiting toxic effects / total number of animals tested ([1]; 30 mg/kg, 4.0h): 0/2; TOX, number of animals exhibiting toxic effects / total number of animals tested ([1]; 100 mg/kg, 4.0h): 0/4; TOX, number of animals exhibiting toxic effects / total number of animals tested ([1]; 300 mg/kg, 4.0h): 0/2; anti-seizure activity (in words) ([3]; mice): inactive; MES, number of animals protected / total number of animals tested ([3]; 30 mg/kg, 4.0h): 0/1; MES, number of animals protected / total number of animals tested ([3]; 100 mg/kg, 4.0h): 0/3; MES, number of animals protected / total number of animals tested ([3]; 300 mg/kg, 4.0h): 0/1; ScMET, number of animals protected / total number of animals tested ([4]; 30 mg/kg, 4.0h): 0/1; ScMET, number of animals protected / total number of animals tested ([4]; 100 mg/kg, 4.0h): 0/1; ScMET, number of animals protected / total number of animals tested ([4]; 300 mg/kg, 4.0h): 0/1
3 | NC(=O)OCC(F)(CO)c1ccccc1 (stereo not shown) [fluoro monocarbamate felbamate, 2-Fluoro-2-phenyl-1,3-propanediol monocarbamate] | 0/4 | 3/8 | 2/4 | 0/4 | 3/4 | 0/4 | 1/4 | 0/4 |  | 0/1 | 2/3 | 1/1 | 0/1 | 0/1 | 1/1 | 0/4 | 0/4 | 0/4 | 0/4 | 0/4 | TOX, number of animals exhibiting toxic effects / total number of animals tested ([1]; 30 mg/kg, 4.0h): 0/2; TOX, number of animals exhibiting toxic effects / total number of animals tested ([1]; 100 mg/kg, 4.0h): 0/4; TOX, number of animals exhibiting toxic effects / total number of animals tested ([1]; 300 mg/kg, 4.0h): 0/2; MES, number of animals protected / total number of animals tested ([3]; 30 mg/kg, 4.0h): 0/1; MES, number of animals protected / total number of animals tested ([3]; 100 mg/kg, 4.0h): 0/3; MES, number of animals protected / total number of animals tested ([3]; 300 mg/kg, 4.0h): 0/1; MES protection (in words) ([3]; mice, 100 mg/kg): moderate MES protection; ScMET, number of animals protected / total number of animals tested ([4]; 30 mg/kg, 4.0h): 0/1; ScMET, number of animals protected / total number of animals tested ([4]; 100 mg/kg, 4.0h): 0/1; ScMET, number of animals protected / total number of animals tested ([4]; 300 mg/kg, 4.0h): 0/1
